Data reported in US20250304549A1, “HYDROXYAMIDE DERIVATIVE AND USE THEREOF” (SICHUAN HUIYU PHARMACEUTICAL CO., LTD., priority 2022, published 2025).
Structures can show the parent of a compound that is named as a salt.

Key:
[1] = system: NCI-H1417 cells; experiment: In vitro cell inhibition assay - H1417 cell proliferation (CellTiter-Glo); type: cell-based; details: Homo sapiens, NCI-H1417, H1417 small cell lung cancer cell proliferation
In short: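 Cells exposed to 8 compound concentrations (5-fold dilutions) in BEGM with 10% FBS for 7 days at 37° C., 5% CO2. Viable cells measured by CellTiter-Glo luminescence; inhibition versus no-inhibitor and no-cell controls, IC50 fitted.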

[2] = target: HDAC1 (Homo sapiens (Human), UniProt Q13547); experiment: In vitro enzyme inhibition assay - HDAC (HDAC-Glo I/II), HDAC1; type: biochemical; details: read-out: HDAC IC50 (nM) HDAC 1
HDAC1, sequence (Q13547 whole entry): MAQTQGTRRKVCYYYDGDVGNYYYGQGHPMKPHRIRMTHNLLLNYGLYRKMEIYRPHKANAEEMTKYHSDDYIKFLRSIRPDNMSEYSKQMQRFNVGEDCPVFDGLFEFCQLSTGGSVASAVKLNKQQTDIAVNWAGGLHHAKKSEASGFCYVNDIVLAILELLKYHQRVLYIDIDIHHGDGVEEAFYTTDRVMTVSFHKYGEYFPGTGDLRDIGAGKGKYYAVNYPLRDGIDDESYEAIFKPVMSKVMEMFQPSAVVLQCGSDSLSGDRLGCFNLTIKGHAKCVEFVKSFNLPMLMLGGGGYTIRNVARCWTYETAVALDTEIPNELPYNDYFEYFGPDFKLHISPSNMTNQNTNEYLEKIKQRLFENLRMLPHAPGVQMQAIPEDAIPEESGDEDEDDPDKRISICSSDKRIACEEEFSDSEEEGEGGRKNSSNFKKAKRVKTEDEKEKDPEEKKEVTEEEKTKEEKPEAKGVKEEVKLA
Protocol: 2. In Vitro Enzyme Inhibition Assay—HDAC
The effect of the compound on the enzymatic activity of pan-HDAC and two isoforms (HDAC1 and HDAC8) was examined using the HDAC-Glo I/II Assay and Screening System assay to assess the level of inhibition of HDAC protease activity and selectivity in each isoform. The proteins and detection reagents were from the HDAC-Glo™ I/II Assay and Screening System (Promega). A 1 mM stock solution of the compound was prepared in DMSO and diluted in a 5-fold gradient to create a series of 8 concentrations, and a specific volume of the highest concentration was diluted 25 times with HDAC Buffer to obtain 4× working solution of the compound. […] The 384-well plate was then read on a multifunctional microplate reader, with the Luminescence channel selected to record Luminescence values (RLU). The inhibition rate was calculated using the following formula: […]
Note: ‘Negative’ refers to the group without the inhibitor; ‘Blank’ refers to the group without the enzyme.
The IC50 value was calculated by fitting the inhibition rate by GraphPad Prism software, employing log (inhibitor) vs. response-Variable Slope (four parameters) model.

[3] = system: NCI-H69 cells; experiment: In vitro cell inhibition assay - NCI-H69 cell proliferation (CellTiter-Glo); type: cell-based; details: Homo sapiens, NCI-H69, H69 small cell lung cancer cell proliferation
In short: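 Over 7 days at 37° C. and 5% CO2, cells grew in RPMI-640 supplemented with 20% FBS in the presence of eight 5-fold-spaced compound concentrations.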

[4] = target: LSD1 (Homo sapiens (Human), UniProt O60341); experiment: In vitro enzyme inhibition assay - LSD1 (HTRF); type: biochemical
[5] = target: HDAC8 (Homo sapiens (Human), UniProt Q9BY41); experiment: In vitro enzyme inhibition assay - HDAC (HDAC-Glo I/II), HDAC8; type: biochemical; details: read-out: HDAC IC50 (nM) HDAC 8
HDAC8, sequence (Q9BY41 whole entry): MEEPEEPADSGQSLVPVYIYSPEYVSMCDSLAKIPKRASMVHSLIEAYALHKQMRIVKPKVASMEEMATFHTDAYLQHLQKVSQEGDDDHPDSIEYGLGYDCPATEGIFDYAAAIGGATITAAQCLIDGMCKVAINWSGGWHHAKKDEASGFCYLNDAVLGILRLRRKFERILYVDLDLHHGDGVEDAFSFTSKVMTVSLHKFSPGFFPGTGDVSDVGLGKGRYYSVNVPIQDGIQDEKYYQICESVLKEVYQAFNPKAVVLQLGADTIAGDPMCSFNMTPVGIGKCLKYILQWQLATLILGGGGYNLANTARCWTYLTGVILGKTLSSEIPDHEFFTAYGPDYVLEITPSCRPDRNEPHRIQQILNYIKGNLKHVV
In short: (§1)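 Inhibition was measured with the HDAC-Glo I/II luminescent assay, testing compound as an 8-point, 5-fold dilution series from a 1 mM DMSO stock. Luminescence (RLU) was normalized to no-inhibitor and no-enzyme controls, and IC50 was derived by four-parameter variable-slope fitting.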

[6] = target: pan-HDAC; experiment: In vitro enzyme inhibition assay - HDAC (HDAC-Glo I/II), pan-HDAC; type: biochemical
In short: as §1

[7] = system: NCI-H526 cells; experiment: In vitro cell inhibition assay - NCI-H526 cell proliferation (CellTiter-Glo); type: cell-based; details: Homo sapiens, NCI-H526, 120 h, H526 small cell lung cancer cell proliferation, 5 days
In short: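 NCI-H526 cells plated at 1×10^3 per well overnight, then treated with 8 concentrations (5-fold dilutions) in RPMI-640 with 10% FBS for 5 days at 37° C., 5% CO2. Viable cells quantified by CellTiter-Glo luminescence; IC50 fitted from inhibition rates relative to no-inhibitor and no-cell controls.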

| SMILES | IC50 [1] | IC50 [2] | IC50 [3] | IC50 [4] | IC50 [5] | IC50 [6] | IC50 [7] |
| --- | --- | --- | --- | --- | --- | --- | --- |
| Cc1ccc(-c2c(-c3ccc(C#N)c(F)c3)nc(N3CCC(NC(=O)CCCCCCC(=O)NO)CC3)n3ccnc23)cc1O [Example 56, N^1-(1-(7-(4-cyano-3-fluorophenyl)-8-(3-hydroxy-4-methylphenyl)imidazo[1,2-c]pyrimidin-5-yl)piperidin-4-yl)-N^8-hydroxyoctanediamide hydrochloride] | 5.4 nM | 642 nM | 1280 nM | 91.5 nM | 893 nM | 467 nM |  |
| COc1cc(N2CCC(N)CC2)nc(-c2ccc(C#N)c(F)c2)c1-c1ccc(OC/C=C/C(=O)NO)c(O)c1 [Example 29, (E)-4-(4-(6-(4-Amino-piperidin-1-yl)-2-(4-cyano-3-fluorophenyl)-4-methoxypyridin-3-yl)-2-hydroxyphenoxy)-N-hydroxybut-2-enamide hydrochloride] | 92.2 nM | 123 nM | 3200 nM | 0.96 nM | 696 nM | 66.9 nM |  |
| N#Cc1ccc(-c2c(-c3ccc(NC(=O)CCCCCCC(=O)NO)c(O)c3)cnc(N3CCC(N)CC3)c2C#N)cc1F [Example 58, N^1-(4-(6-(4-aminopiperidin-1-yl)-5-cyano-4-(4-cyano-3-fluorophenyl)pyridin-3-yl)-2-hydroxyphenyl)-N^8-hydroxyoctanediamide hydrochloride] | 46.3 nM | 47.4 nM | 3000 nM | 0.1 nM | 136 nM | 31.9 nM |  |
| COc1ccc(-c2cnc(N3CCC(NCc4ccc(/C=C/C(=O)NO)cc4)CC3)c(C#N)c2-c2ccc([N+](=O)[O-])nc2)cc1O [Example 248, (E)-3-(4-(((1-(3′-Cyano-5′-(3-hydroxy-4-methoxyphenyl)-6-nitro-[3,4′-bipyridin]-2′-yl)piperidin-4-yl)amino)methyl)phenyl)-N-hydroxyacrylamide formate] | 5.33 nM | 0.61 nM | 3.94 nM | 0.81 nM |  | 0.62 nM | 9.06 nM |
| COc1ccc(-c2cnc(N3CCC(NCc4ccc(/C=C/C(=O)NO)cc4)CC3)c(C#N)c2-c2cnc(C#N)c(C)c2)cc1O [Example 247, (E)-3-(4-(((1-(3′,6-Dicyano-5′-(3-hydroxy-4-methoxyphenyl)-5-methyl-[3,4′-bipyridin]-2′-yl)piperidin-4-yl)amino)methyl)phenyl)-N-hydroxyacrylamide formate] | 4.93 nM | 0.84 nM | 3.17 nM | 3.49 nM |  | 0.87 nM | 7.56 nM |
| COc1ccc(-c2cnc(N3CCC(NCc4ccc(/C=C/C(=O)NO)cc4)CC3)c(C#N)c2-c2cnc(C#N)c(OC)c2)cc1O [Example 243, (E)-3-(4-(((1-(3′,6-Dicyano-5′-(3-hydroxy-4-methoxyphenyl)-5-methoxy-[3,4′-bipyridin]-2′-yl)piperidin-4-yl)amino)methyl)phenyl)-N-hydroxyacrylamide hydrochloride] | 10.5 nM | 0.6 nM | 3.24 nM | 13.6 nM |  | 1.74 nM | 10.6 nM |
| CNC1CCN(c2ncc(-c3ccc(NCc4ccc(C(=O)NO)cc4)c(O)c3)c(-c3ccc(C#N)c(F)c3)c2C#N)CC1 [Example 39, 4-((4-(4-(5-Cyano-4-(4-cyano-3-fluorophenyl)-6-(4-(methylamino)piperidin-1-yl)pyridin-3-yl)-2-hydroxyphenyl)amino)methyl)-N-hydroxybenzamide hydrochloride] | 5.2 nM | 335 nM | 2390 nM | 0.15 nM | 207 nM | 167 nM |  |
| COc1cc(N2CCC(N)CC2)nc(-c2ccc(C#N)c(F)c2)c1-c1ccc(/C=C/C(=O)NO)c(O)c1 [Example 28, (E)-3-(4-(6-(4-Amino-piperidin-1-yl)-2-(4-cyano-3-fluorophenyl)-4-methoxypyridin-3-yl)-2-hydroxyphenyl)-N-hydroxyacrylamide formate] | 25.5 nM | 608 nM |  | 0.64 nM | 2330 nM | 270 nM |  |
| N#Cc1ccc(-c2nc(N3CCC(N)CC3)n3ccnc3c2-c2ccc(OCCCCCCC(=O)NO)c(O)c2)cc1F [Example 21, 7-(4-(5-(4-Aminopiperidin-1-yl)-7-(4-cyano-3-fluorophenyl)imidazo[1,2-c]pyrimidin-8-yl)-2-hydroxyphenoxy)-N-hydroxyheptanamide hydrochloride] | 65 nM | 400 nM |  | 0.05 nM | 275 nM | 119 nM |  |

More lines, in order of falling IC50 [1], values ahead:

| IC50 [1] | IC50 [2] | IC50 [3] | IC50 [4] | IC50 [5] | IC50 [6] | IC50 [7] | SMILES |
| --- | --- | --- | --- | --- | --- | --- | --- |
| 845 nM | 311 nM |  | 16.9 nM | 446 nM | 96.5 nM |  | COc1ccc(-c2c(-c3ccc(C#N)c(F)c3)nc(N3CCC(N)CC3)n3ccnc23)cc1OCCCCCCC(=O)NO [Example 20, 7-(5-(5-(4-aminopiperidin-1-yl)-7-(4-cyano-3-fluorophenyl)imidazo[1,2-c]pyrimidin-8-yl)-2-methoxyphenoxy)-N-hydroxyheptanamide hydrochloride] |
| 51.9 nM | 92.3 nM | 7890 nM | 1.58 nM | 289 nM | 66.9 nM |  | COc1ccc(-c2c(OCc3ccc(/C=C/C(=O)NO)cc3)cc(N3CCC(N)CC3)nc2-c2ccc(C#N)c(F)c2)cc1O [Example 2, (E)-3-(4-(((6-(4-Aminopiperidin-1-yl)-2-(4-cyano-3-fluorophenyl)-3-(3-hydroxy-4-methoxyphenyl)pyridin-4-yl)oxy)methyl)phenyl)-N-hydroxyacrylamide hydrochloride] |
| 42.3 nM | 8.28 nM |  | 0.41 nM | 118 nM | 5.83 nM |  | CNC1CCN(c2ncc(-c3ccc(OCCCCCCC(=O)NO)c(O)c3)c(-c3ccc(C#N)c(F)c3)c2C#N)CC1 [Example 24, 7-(4-(5-cyano-4-(4-cyano-3-fluorophenyl)-6-(4-(methylamino)piperidin-1-yl)pyridin-3-yl)-2-hydroxyphenoxy)-N-hydroxyheptanamide hydrochloride] |
| 7.36 nM | 9.71 nM | 24.1 nM | 0.64 nM |  | 11.3 nM | 109 nM | COc1ccc(-c2cnc(N3CCC(NCc4cnc(/C=C/C(=O)NO)cc4Cl)CC3)c(C#N)c2-c2ccc(C#N)c(F)c2)cc1O [Example 227, (E)-3-(4-Chloro-5-(((1-(3-cyano-4-(4-cyano-3-fluorophenyl)-5-(3-hydroxy-4-methoxyphenyl)pyridin-2-yl)piperidin-4-yl)amino)methyl)pyridin-2-yl)-N-hydroxyacrylamide formate] |
| 1.55 nM | 198 nM | 760 nM | 0.23 nM | 320 nM | 74.4 nM |  | N#Cc1ccc(-c2nc(N3CCC(N)CC3)n3ccnc3c2-c2ccc(OCc3ccc(/C=C/C(=O)NO)cc3)c(O)c2)cc1F [Example 23, (E)-3-(4-(4-(5-(4-Aminopiperidin-1-yl)-7-(4-cyano-3-fluorophenyl)imidazo[1,2-c]pyrimidin-8-yl)-2-hydroxyphenoxy)methyl)phenyl)-N-hydroxyacrylamide hydrochloride] |
